Reference: US9668477B2, “Active compound combinations” (BAYER CROPSCIENCE AG, priority 2012, dated 2017)
Read-outs that look alike come from different tables or passages of the source.

Key:
Format in all cases: in vivo
[1] = tested on: Leptosphaeria nodorum; assay: Leptosphaeria nodorum test (wheat)/preventive; details: Table C1; 160 ppm a.i.; 8 days after inoculation
Experimental: Solvent: 49 parts by weight of N,N-dimethylacetamide Emulsifier: 1 part by weight of alkylaryl polyglycol ether To produce a suitable preparation of active compound, 1 part by weight of active compound or active compound combination is mixed with the stated amounts of solvent and emulsifier, and the concentrate is diluted with water to the desired concentration. To test for preventive activity, young plants are sprayed with the preparation of active compound or active compound combination at the stated rate of application. After the spray coating has been dried, the plants are sprayed with a spore suspension of Leptosphaeria nodorum.

[2] = tested on: Alternaria solani; assay: Alternaria test (tomatoes)/preventive; details: 3 days after inoculation
Experimental: (§1) Solvent: 24.5 parts by weight of acetone • 24.5 parts by weight of dimethylacetamide
(§2) Emulsifier: 1 part by weight of alkylaryl polyglycol ether
(§3) To produce a suitable preparation of active compound, 1 part by weight of active compound is mixed with the stated amounts of solvent and emulsifier, and the concentrate is diluted with water to the desired concentration.
(§4) To test for preventive activity, young plants are sprayed with the preparation of active compound at the stated rate of application. After the spray coating has dried on, the plants are inoculated with an aqueous spore suspension of Alternaria solani. The plants are then placed in an incubation cabinet at approximately 20° C. and a relative atmospheric humidity of 100%.
The test is evaluated 3 days after the inoculation. 0% means an efficacy which corresponds to that of the untreated control while an efficacy of 100% means that no disease is observed.

[3] = tested on: Blumeria graminis f.sp. hordei; assay: Blumeria test (barley)/preventive; details: Table B1; 160 ppm a.i.; 7 days after inoculation
Experimental: Solvent: 49 parts by weight of N,N-dimethylacetamide Emulsifier: 1 part by weight of alkylaryl polyglycol ether To produce a suitable preparation of active compound, 1 part by weight of active compound or active compound combination is mixed with the stated amounts of solvent and emulsifier, and the concentrate is diluted with water to the desired concentration. To test for preventive activity, young plants are sprayed with the preparation of active compound or active compound combination at the stated rate of application. After the spray coating has been dried, the plants are dusted with spores of Blumeria graminis f.sp. hordei.

[4] = tested on: Phakopsora pachyrhizi; assay: Phakopsora test (soybeans)/preventive; details: Phakopsora pachyrhizi, 168 h, 7 days after inoculation, read-out: Efficacy in % found; for pest or weed control at 0.25 ppm: 0.25 ppm a.i.
[5] = tested on: Sphaerotheca fuliginea; assay: Sphaerotheca test (cucumbers)/preventive; details: Table G1, 7 days after inoculation
Experimental: (§5) Solvent: 24.5 parts by weight of acetone • 24.5 parts by weight of dimethylacetamide Emulsifier: 1 part by weight of alkylaryl polyglycol ether To produce a suitable preparation of active compound, 1 part by weight of active compound is mixed with the stated amounts of solvent and emulsifier, and the concentrate is diluted with water to the desired concentration. To test for preventive activity, young plants are sprayed with the preparation of active compound at the stated rate of application. After the spray coating has dried on, the plants are inoculated with an aqueous spore suspension of Sphaerotheca fuliginea.

[6] = tested on: Uromyces appendiculatus; assay: Uromyces test (beans)/preventive; details: 10 days after inoculation
Experimental: as §1, §2, §3
as §4, with “the causal agent of bean rust (Uromyces appendiculatus) and” for “Alternaria solani. The plants are”, “remain for 1 day” for “placed”
The plants are then placed in a greenhouse at approximately 21° C. and a relative atmospheric humidity of approximately 90%.
The test is evaluated 10 days after the inoculation. 0% means an efficacy which corresponds to that of the untreated control, while an efficacy of 100% means that no disease is observed.

[7] = tested on: Pyrenophora teres; assay: Pyrenophora teres-test (barley)/preventive; details: Table F1; 160 ppm a.i.; 8 days after inoculation
Experimental: (§6) Solvent: 49 parts by weight of N,N-dimethylacetamide
as §2
(§7) To produce a suitable preparation of active compound, 1 part by weight of active compound or active compound combination is mixed with the stated amounts of solvent and emulsifier, and the concentrate is diluted with water to the desired concentration.
(§8) To test for preventive activity, young plants are sprayed with the preparation of active compound or active compound combination at the stated rate of application.
After the spray coating has been dried, the plants are sprayed with a spore suspension of Pyrenophora teres. The plants remain for 48 hours in an incubation cabinet at approximately 20° C. and a relative atmospheric humidity of approximately 100%.
(§9) The plants are placed in the greenhouse at a temperature of approximately 20° C. and a relative atmospheric humidity of approximately 80%.
(§10) The test is evaluated 8 days after the inoculation. 0% means an efficacy which corresponds to that of the untreated control, while an efficacy of 100% means that no disease is observed.

[8] = tested on: Venturia inaequalis; assay: Venturia test (apples)/preventive; details: Table I1, 10 days after inoculation
Experimental: as §5, with “application.” for “application. After the spray coating has dried on, the plants are inoculated with an aqueous spore suspension of Sphaerotheca fuliginea.”

[9] = tested on: Puccinia triticina; assay: Puccinia triticina-test (wheat)/preventive; details: Table E1, 8 days after inoculation
Experimental: as §6, §2, §7, §8
After the spray coating has been dried, the plants are sprayed with a spore suspension of Puccinia triticina. The plants remain for 48 hours in an incubation cabinet at approximately 20° C. and a relative atmospheric humidity of approximately 100%.
as §9, §10

`CCN(C)/C=N/c1cc(C)c(Oc2ccccc2)cc1C` [(Id)] was tested, and the “Efficacy in % found” value [1] was 50%, the “Efficacy in % found” value ([2]; Table A1, 0.25 ppm a.i.) was 0% and the “Efficacy in % found” value ([2]; Table A1, 0.5 ppm a.i.) was 24%. For the same compound, the “Efficacy in % found” value ([2]; Table A1, 1 ppm a.i.) was 18%, the “Efficacy in % found” value ([2]; Table A2, 0.5 ppm a.i.) was 0% and the “Efficacy in % found” value ([2]; Table A2, 1 ppm a.i.) was 11%. For the same compound, the “Efficacy in % found” value [3] was 60%, the pest or weed control at 0.25 ppm ([4]; Table D1) was 28% and the pest or weed control at 0.5 ppm ([4]; Table D1, 0.5 ppm a.i.) was 40%. The pest or weed control at 1 ppm ([4]; Table D1, 1 ppm a.i.) was 70%, the pest or weed control at 0.25 ppm ([4]; Table D2) was 45% and the “Efficacy in % found” value ([5]; 0.25 ppm a.i.) was 0%. For the same compound, the “Efficacy in % found” value ([5]; 0.5 ppm a.i.) was 0%, the “Efficacy in % found” value ([5]; 1.25 ppm a.i.) was 10% and the “Efficacy in % found” value ([6]; Table H1, 0.1 ppm a.i.) was 25%. The “Efficacy in % found” value ([6]; Table H1, 0.25 ppm a.i.) was 60%, the “Efficacy in % found” value ([6]; Table H2, 0.2 ppm a.i.) was 0% and the “Efficacy in % found” value ([6]; Table H3, 0.125 ppm a.i.) was 0%. The “Efficacy in % found” value ([6]; Table H3, 0.25 ppm a.i.) was 0%, the “Efficacy in % found” value [7] was 13% and the “Efficacy in % found” value ([8]; 0.25 ppm a.i.) was 0%. For the same compound, the “Efficacy in % found” value ([8]; 0.5 ppm a.i.) was 0%, the “Efficacy in % found” value ([8]; 1 ppm a.i.) was 0% and the “Efficacy in % found” value ([9]; 80 ppm a.i.) was 70%. For the same compound, the “Efficacy in % found” value ([9]; 160 ppm a.i.) was 80%.
